We go through two substances from patent US10905762B2, “Targeted nanoparticle conjugates” (CASE WESTERN RESERVE UNIVERSITY, priority 2011, dated 2021).

The target in one assay is EGFR (Homo sapiens, UniProt P00533). The conditions noted are these: binding to the EGFR; read-out: dissociation constant; cited from earlier work.
Assay [1] relates to 9L.E29 cells. The conditions noted are these: free Pc 4, stated as known; cited from earlier work.
Assay [2] relates to 9L.E29 cells. Description: Cell viability assay using Trypan blue. The assay is classed as cell-based, rat. Conditions: 1 μM of Pc 4 and 1 J/cm^2 of laser power. From the text:
Cell viability assays using Trypan blue for EGFpep-Au NP-Pc 4 treated cells further illustrated this point (FIG. 4C), showing not only an increase in the number of dead cancer cells, but possibly different pathways of cell death.

Another assay deals with glioma cancer cells. Conditions: stated as known; cited from earlier work.

As to “YHWYGYTPQNVI [EGF peptide, YHWYGYTPQNVI-amide]”, the Kd at EGFR was 22 nM.

As for phthalocyanine 4 [free Pc 4], the “subcellular localization of Pc 4 (known)” value with 9L.E29 cells [1] is on record as “localize mainly in mitochondria with some additional localization within lysosomes”. Also, in the assay on 9L.E29 cells [2], the “mode of cell death (Trypan blue staining)” value is given as “caused most cancer cells to die very quickly”. In addition, the “localization of free Pc 4 (known)” value with glioma cancer cells is “known to locate in the mitochondria”.
